Test results as given in patent publication US20170326100A1, “COMPOSITION FOR ACTIVATING LONGEVITY GENE” (AMOREPACIFIC CORPORATION, priority 2014, published 2017).
Entries after “also recorded” stand apart in the source; their conditions may differ.

Tests used:
ERCC8 mRNA [1] = assay: ERCC8 activation: relative expression of ERCC8 mRNA in fibroblasts (TaqMan RT-PCR); format: cell-based, human; details: fibroblasts (NHF), 10 ppm, 24 hours, control = 1.0
Protocol: (§1) Experiment was conducted using normal human keratinocytes (NHK) and normal human fibroblasts (NHF) to investigate the effect of a methylated catechin. Specifically, 2×10^5 NHFs (normal human fibroblasts) purchased from Lonza (Allendale, N.J., USA) were cultured on a 60-mm dish at 37° C. for 24 hours using DMEM. The medium was discarded and the cells were transferred to a new tissue culture flask. Also, NHEKs (normal human epidermal keratinocytes, corresponding to NHK) purchased from Lonza (Allendale, N.J., USA) were cultured using a keratinocyte growth medium (KGM-GOLD, Lonza, Allendale, N.J., USA). The cells were detached with 0.025% trypsin and transferred to a new tissue culture flask after subculturing.
(§2) Specifically, after treating the keratinocytes (NHK) and the fibroblasts (NHF) with each of retinol, green tea EGCG and green tea EGCG″3Me at 10 ppm, followed by incubation at 37° C. for 24 hours, total RNA was isolated from the cells and the relative expression of ERCC8 mRNA was compared.
(§3) The total RNA was isolated using TRIzol™ (Invitrogen, Carlsbad, Calif., USA) according to the manufacturer's protocol. RNA concentration was measured spectrophotometrically and RNA integrity was measured using BioAnalyzer 2100 (Agilent Technologies, Santa Clara, Calif., USA). 4 μg of RNA was reverse transcribed to cDNA using SuperScript®III reverse transcriptase (Invitrogen, Carlsbad, Calif., USA). The cDNA was stored at −70° C. The expression level of the target gene was measured by quantitative real-time TaqMan RT-PCR (7500Fast, Applied Biosystems, Foster City, Calif., USA). The cycle condition was 10 minutes at 95° C., 50 cycles of […] at 95° C. and 1 minute at 60° C.

Sirt-1 mRNA [2] = assay: Sirt-1 activation: relative expression of Sirt-1 mRNA in keratinocytes (TaqMan RT-PCR); format: cell-based, human; details: keratinocytes (NHK), 10 ppm, 24 hours, control = 1.0
Protocol: as §1
(§4) Specifically, after treating the keratinocytes (NHK) and the fibroblasts (NHF) with each of retinol, green tea EGCG and green tea EGCG″3Me at 10 ppm, followed by incubation at 37° C. for 24 hours, total RNA was isolated from the cells and the relative expression of Sirt-1 mRNA was compared.
as §3

XPD mRNA [3] = assay: XPD activation: relative expression of XPD mRNA in fibroblasts (TaqMan RT-PCR); format: cell-based, human; details: fibroblasts (NHF), 10 ppm, 37° C. 24 hours, control = 1.0
Protocol: as §1
(§5) Specifically, after treating the keratinocytes (NHK) and the fibroblasts (NHF) with each of retinol, green tea EGCG and green tea EGCG″3Me at 10 ppm, followed by incubation at 37° C. for 24 hours, total RNA was isolated from the cells and the relative expression of XPD mRNA was compared.
as §3

Klotho mRNA [4] = assay: Klotho activation: relative expression of Klotho mRNA in keratinocytes (TaqMan RT-PCR); format: cell-based, human; details: keratinocytes (NHK), 24 hours, control = 1.0
Protocol: as §1
as §2, with “of retinol (10 ppm),” for “of retinol,”, “EGCG (1 and 10 ppm)” for “EGCG”, “EGCG″3Me (1 and” for “EGCG″3Me at”, “10 ppm),” for “10 ppm,”, “of Klotho” for “of ERCC8”
as §3

Fox03 mRNA [5] = assay: FoxO3 activation: relative expression of Fox03 mRNA in keratinocytes (TaqMan RT-PCR); format: cell-based, human; details: keratinocytes (NHK), 10 ppm, 24 hours, control = 1.0
Protocol: as §1
(§6) Specifically, after treating the keratinocytes (NHK) and the fibroblasts (NHF) with each of retinol, green tea EGCG and green tea EGCG″3Me at 10 ppm, followed by incubation at 37° C. for 24 hours, total RNA was isolated from the cells and the relative expression of Fox03 mRNA was compared.
as §3

ERCC8 mRNA [6] = assay: ERCC8 activation: relative expression of ERCC8 mRNA in keratinocytes (TaqMan RT-PCR); format: cell-based, human; details: keratinocytes (NHK), 10 ppm, 24 hours, control = 1.0
Protocol: as §1, §2, §3

Klotho mRNA [7] = assay: Klotho activation: relative expression of Klotho mRNA in fibroblasts (TaqMan RT-PCR); format: cell-based, human; details: fibroblasts (NHF), 24 hours, control = 1.0
Protocol: as §1
as §2, with “of retinol (10 ppm),” for “of retinol,”, “EGCG (1 and 10 ppm)” for “EGCG”, “EGCG″3Me (1 and” for “EGCG″3Me at”, “10 ppm),” for “10 ppm,”, “of Klotho” for “of ERCC8”
as §3

XPD mRNA [8] = assay: XPD activation: relative expression of XPD mRNA in keratinocytes (TaqMan RT-PCR); format: cell-based, human; details: keratinocytes (NHK), 10 ppm, 37° C. 24 hours, control = 1.0
Protocol: as §1, §5, §3

Sirt-1 mRNA [9] = assay: Sirt-1 activation: relative expression of Sirt-1 mRNA in fibroblasts (TaqMan RT-PCR); format: cell-based, human; details: fibroblasts (NHF), 10 ppm, 24 hours, control = 1.0
Protocol: as §1, §4, §3

Fox03 mRNA [10] = assay: FoxO3 activation: relative expression of Fox03 mRNA in fibroblasts (TaqMan RT-PCR); format: cell-based, human; details: fibroblasts (NHF), 10 ppm, 24 hours, control = 1.0
Protocol: as §1, §6, §3

[11] = tested on: normal human epidermal keratinocytes (NHEKs); assay: Evaluation of cellular differentiation of keratinocytes; format: cell-based; details: various concentrations, 48 hours, FIG. 1
Protocol: In order to investigate the effect of the methylated catechin on the differentiation of keratinocytes, normal human epidermal keratinocytes (NHEKs) were treated with EGCG″3Me and EGCG at various concentrations for 48 hours.

O=C(O[C@@H]1Cc2c(O)cc(O)cc2O[C@@H]1c1cc(O)c(O)c(O)c1)c1cc(O)c(O)c(O)c1 [Green tea EGCG, epigallocatechin gallate] was tested, and the “relative expression of ERCC8 mRNA” value (ERCC8 mRNA [1]) was 2.3, the “relative expression of Sirt-1 mRNA” value (Sirt-1 mRNA [2]) was 8.2 and the “relative expression of XPD mRNA” value (XPD mRNA [3]) was 2.8. The “relative expression of Klotho mRNA” value (Klotho mRNA [4]; 1 ppm) was 2.5, the “relative expression of Klotho mRNA” value (Klotho mRNA [4]; 10 ppm) was 10.2 and the “relative expression of Fox03 mRNA” value (Fox03 mRNA [5]) was 1.4. The “relative expression of ERCC8 mRNA” value (ERCC8 mRNA [6]) was 1.9, the “relative expression of Klotho mRNA” value (Klotho mRNA [7]; 1 ppm) was 1.2 and the “relative expression of Klotho mRNA” value (Klotho mRNA [7]; 10 ppm) was 1.8. For the same compound, the “relative expression of XPD mRNA” value (XPD mRNA [8]) was 9.2, the “relative expression of Sirt-1 mRNA” value (Sirt-1 mRNA [9]) was 2.0 and the “relative expression of Fox03 mRNA” value (Fox03 mRNA [10]) was 2.1.
With CC1=C(/C=C/C(C)=C/C=C/C(C)=C/CO)C(C)(C)CCC1 [Retinol] the “relative expression of ERCC8 mRNA” value (ERCC8 mRNA [1]) was 1.0, the “relative expression of Sirt-1 mRNA” value (Sirt-1 mRNA [2]) was 7.9 and the “relative expression of XPD mRNA” value (XPD mRNA [3]) was 2.4. For the same compound, the “relative expression of Klotho mRNA” value (Klotho mRNA [4]; 10 ppm) was 9.8, the “relative expression of Fox03 mRNA” value (Fox03 mRNA [5]) was 1.1 and the “relative expression of ERCC8 mRNA” value (ERCC8 mRNA [6]) was 1.2. The “relative expression of Klotho mRNA” value (Klotho mRNA [7]; 10 ppm) was 2.2, the “relative expression of XPD mRNA” value (XPD mRNA [8]) was 10.1 and the “relative expression of Sirt-1 mRNA” value (Sirt-1 mRNA [9]) was 1.9. For the same compound, the “relative expression of Fox03 mRNA” value (Fox03 mRNA [10]) was 1.4.
“epigallocatechin-3-O-(3-O-methyl)gallate [Green tea EGCG3″Me]” was tested, and the “relative expression of ERCC8 mRNA” value (ERCC8 mRNA [1]) was 5.1, the “relative expression of Sirt-1 mRNA” value (Sirt-1 mRNA [2]) was 17.1 and the “relative expression of XPD mRNA” value (XPD mRNA [3]) was 6.9. For the same compound, the “relative expression of Klotho mRNA” value (Klotho mRNA [4]; 1 ppm) was 4.2, the “relative expression of Klotho mRNA” value (Klotho mRNA [4]; 10 ppm) was 10.5 and the “relative expression of Fox03 mRNA” value (Fox03 mRNA [5]) was 3.2. For the same compound, the “relative expression of ERCC8 mRNA” value (ERCC8 mRNA [6]) was 4.3, the “relative expression of Klotho mRNA” value (Klotho mRNA [7]; 1 ppm) was 1.7 and the “relative expression of Klotho mRNA” value (Klotho mRNA [7]; 10 ppm) was 2.1. For the same compound, the “relative expression of XPD mRNA” value (XPD mRNA [8]) was 21.4, the “relative expression of Sirt-1 mRNA” value (Sirt-1 mRNA [9]) was 4.3 and the “relative expression of Fox03 mRNA” value (Fox03 mRNA [10]) was 5.3. For the same compound, the differentiation of keratinocytes [11] was “promoted the differentiation of the keratinocytes in a concentration-dependent manner; also recorded: superior differentiation of the keratinocytes at low concentration as compared to EGCG”.
